In US10293023B2, “Method of altering vascular permeability and uses thereof” (CHILDREN'S MEDICAL CENTER CORPORATION, priority 2013, dated 2019):

Key:
LOX [1] = experiment: LOX activity measured in blood samples (LOX activity assay kit); assay type: in vivo; conditions: treated mice vs control; BAPN 2 weeks, LOX siRNA 1 week
Procedure: LOX activity in the serum and lung homogenate was measured using LOX activity assay kit (ABD Bioquest, CA) in which LOX substrate that releases hydrogen peroxide was detected ^13,37,55. Hydroxyproline in lung tissue or serum was measured using Hydroxyproline assay kit (Biovision, Milpitas, Calif.)^27. The levels of IL-1 and TNF-α in the lung homogenate were measured by ELISA (R&D systems).

mouse lungs [2] = experiment: In vivo pulmonary permeability assay (Evan's Blue dye leakage); set-up: species or system mice
Procedure: (§1) Mice (6-10 weeks old, CD1 strain, female) were treated with LPS (100 mg, intraperitoneally) and lung permeability was assessed 2 days after injection ^3. […] The lung permeability was measured using Evan's Blue dye or low MW fluorescently labeled dextran (MW 4000, sigma) leakage ^3. Evans blue dye was extracted from the lung by incubation with formamide (70° C. for 24 h) and the concentration of Evans blue was estimated by dual-wavelength spectrophotometer (620 nm and 740 nm). Mice were treated with BAPN (3 mg/kg, drinking water) for 14 days ^13. […] The inventors treated the mice with LPS for the last two days. For decellularization of lung, the inventors perfused the lung with decellularization buffer (0.5% SDS/PBS) for 1 h and cryosectioned it and analyzed by H&E staining and immunohistochemistry 25,26. […] For analysis of collagen structure, the inventors used picrosirius red staining ^30 and observed the structure using birefringence microscope (Abrio imaging system, CRI, MA)^30.

mouse lungs [3] = experiment: Inflammatory cell count in BAL fluid (Wright-Giemsa stain); assay type: in vivo, mice; conditions: total inflammatory cell count
Procedure: BAL was performed by instilling 0.9% NaCl in two separate 0.5 ml aliquots. The fluid was recovered by gentle suction and placed on ice for immediate processing. An aliquot of the BAL fluid was processed immediately for differential cell counts performed on cytospin preparations stained with modified Wright-Giemsa stain (Diff-Quik; American Scientific Products, McGaw Park, Ill.).

[4] = tested on: pulmonary endothelial cells; experiment: Endothelial cell-cell junctional integrity in lung by TEM; assay type: in vivo, mice
Procedure: For transmission electron microscopy (TEM), small pieces (1-2 mm cubes) of lung tissue were fixed with 2.5% Glutaraldehyde and 2% Paraformaldehyde in 0.1 M sodium cacodylate buffer (pH 7.4) for at least 2 h at RT, washed in 0.1M cacodylate buffer and postfixed with 1% Osmiumtetroxide (OsO4)/1.5% Potassiumferrocyanide (KFeCN6) for 1 h, washed in water and incubated in 1% aqueous uranyl acetate for 1 h followed by washes in water and subsequent dehydration in grades of alcohol. The samples were then put in propyleneoxide for 1 hr and infiltrated ON in a 1:1 mixture of propyleneoxide and TAAB Epon (Marivac Canada Inc. St. Laurent, Canada). The samples were then embedded in TAAB Epon and polymerized at 60 C for 48 hrs. Ultrathin sections (about 60 nm) were cut on a Reichert Ultracut-S microtome, picked up on to copper grids stained with lead citrate and examined in a JEOL 1400 TEM microscope or a TecnaiG^2 Spirit BioTWIN.

lung cell = experiment: Lung cell proliferation or apoptosis in vivo; set-up: species or system mice; conditions: data not shown
mouse lung tissues = experiment: Lung stiffness (Young's modulus) by tensile loading assay; conditions: compared with controls (control IgG, control siRNA)
Procedure: Mice (6-10 weeks old, CD1 strain, female) were treated with LPS (100 mg, intraperitoneally) and lung permeability was assessed 2 days after injection ^3. […] Gene knockdown or overexpression in the lung (2 days later) was confirmed by measuring mRNA and/or protein levels using qRT-PCR and IB, respectively. […] Mice were treated with BAPN (3 mg/kg, drinking water) for 14 days ^13. The inventors also treated mice with LOX function-blocking polyclonal antibody (3 mg/kg)^13,36, LOX DNA or LOX siRNA (10 mg/mouse) injected intravenously (retro orbital injection) twice per week. The inventors treated the mice with LPS for the last two days.
The inventors trimmed and made cylindrical lung tissue sections using a sharp knife that included peripheral and central portions of the left lobe. The stiffness of mouse lung tissues was evaluated by determining Young's Modulus (E) under tensile loading ^31,32 (Mach-1; Biomomentum, Canada). Tissues were attached to the base and probe using polyacrylamide glue and stretched until complete breakage of the tissue. The Young's Modulus was derived from the slope of a standard stress-strain curve using data within the first 10% of the maximum strain.

mouse lungs [5] = experiment: Endotoxin (LPS)-induced lung vascular permeability, Evan's Blue dye leakage; conditions: for increase of vascular permeability induced by LPS: treatment in combination with LPS for the last two days
Procedure: as §1

mouse lungs [6] = experiment: ECM and collagen structure of decellularized lung (H&E, immunofluorescence, picrosirius red birefringence); conditions: for collagen fiber alignment with alveolar septae: picrosirius red staining, birefringence microscopy
Procedure: as §1

LOX [7] = experiment: LOX mRNA and protein expression in vivo (qRT-PCR, immunoblot); set-up: species or system mice
Procedure: Quantitative reverse transcription (qRT)-PCR was performed with the Quantitect SYBR Green RT-PCR kit (QIAGEN) using ABI 7300 real time PCR system (Applied Biosystems, Foster City, Calif.). Cyclophilin controlled for overall cDNA content. The primers used for mouse cyclophilin were forward; 5′-[…]-3′ (SEQ ID NO:4), reverse; 5′-[…]-3′(SEQ ID NO:5)^15. The primers for mouse LOX were forward; 5′-[…]-3′(SEQ ID NO:6), reverse; 5′-[…]-3′(SEQ ID NO:7).

| Molecule | decrease in LOX activity measured in blood samples (LOX [1]) | lung vascular permeability: Evan's Blue dye leakage higher than in control non-treated lungs (mouse lungs [2]; BAPN treatment of healthy mice) | increase of inflammatory cells in the bronchoalveolar lavage (BAL) fluid (mouse lungs [3]) | junctions between pulmonary endothelial cells [4] | lung cell proliferation or apoptosis in vivo (lung cell) | decrease of lung stiffness (Young's modulus) (mouse lung tissues) | LPS-induced pulmonary edema in mice (mouse lungs [5]; mouse, in vivo) | increase of vascular permeability induced by LPS (mouse lungs [5]) | disruption of collagen VI-positive ECM fibers by LPS (mouse lungs [6]; decellularized lungs, LPS in combination with BAPN) | fine collagen fibril / ECM structure in decellularized lung (mouse lungs [6]; immunofluorescence microscopy) | collagen fiber alignment with alveolar septae (mouse lungs [6]) | suppression of vascular permeability induced by LPS treatment (mouse lungs [5]; Evans blue dye leakage, 8 mg/mouse/day, IP, two days) | increase of lung vascular permeability (mouse lungs [2]; Evan's Blue dye leakage, compared to control-treated or untreated mice) | LOX expression in the lung (LOX [7]; mRNA and/or protein) | LOX expression in other organs, such as the kidney (LOX [7]; not shown) |
| --- | --- | --- | --- | --- | --- | --- | --- | --- | --- | --- | --- | --- | --- | --- | --- |
| N#CCCN [BAPN, beta-aminopropionitrile] | 25% | more than 60% | approximately 2 fold | disrupted | did not produce detectable changes | 40% | inhibits | prevented | prevented this disruption | lost the fine network | more randomly distributed |  |  |  |  |
| CC(C)(S)[C@@H](N)C(=O)O [D-penicillamine] |  |  |  |  |  |  |  |  |  |  |  | 40% |  |  |  |
| LOX siRNA: siRNA for mouse LOX, 5′-CAACGGGCAGGUGUUCAG-3′ (SEQ ID NO:2) and 5′-CUGAACACCUGCCCGUUG-3′ (SEQ ID NO:3) (listed as RNA, chemistry not given here) | 60% |  |  |  |  | 30% |  | restored |  |  | disrupted normal collagen fiber alignment |  | 2.5 fold | specifically decreased | not in the kidney |
